Assay results as given in patent EP0070186B1, “Biologically active peptides” (CELLTECH LIMITED, priority 1981, dated 1985).

What was measured:
[1] = test system: female Wistar rats; assay: randomized bioassay, effect on plasma calcium after tail vein injection (Example 2); type: in vivo
Protocol: After preliminary experiments had shown that the time courses of the effects of PDN 21 and human calcitonin (hCT) on plasma calcium were similar, peptide in acetate buffer was injected into the tail vein of female Wistar rats (mean wt 45 g, range 43―48, Oxfordshire Laboratory Animal Colonies (1976) Ltd.) and blood was taken from the aorta after 30 min in a randomized bioassay (Macintyre, I. Galante, L. S. & Hillyard, C. J. in Handbuch der inneren MedizinVllIA(eds) Kuhlen- cordt, F. & Bartelheimer, H. 623-634 (Springer-Verlag, Heidelberg, 1980)). Plasma calcium was measured colormetrically by the method of (Gindler, E. M. & King, J. D. Amer. J.Clin. Path. 58, 376―382 (1972)), and the values confirmed by atomic absorption spectrophotometry. The results are shown graphically in Figure 3. Each point is the mean from three rats 0 PDN-21; A hCT (WHO 1st International Reference Preparation of Calcitonin Hormone for Bioassay, 70/234 supplied by the National Institute for Biological Standards and Control); DhCT+PDN-21 (800 ng PDN 21 was injected with each dose of calcitonin). […] Smoothed curves were fitted to the data by eye. […] Potencies were calculated in terms of hCT over the dose ranges where the log dose response is linear, yielding values of 0.017 milliunits hCT equivalent/ng PDN-21 and 5.11 milliunits hCT equivalent/milliunit hCT in the hCT+PDN-21 group. […]

[2] = literature (Gudmundson et al. 1966); cited from earlier work

With human calcitonin [hCT] as the substance, how does the “enhancement of the potency of hCT” value ([1]; in the presence of a maximal dose of PDN-21, plasma calcium in the rat) read?
The value was “five-fold”.

What about the “dose giving 50% response (ED50), plasma calcium” value ([1]; tail vein injection, blood after 30 min, probit transformation) of the same substance?
The value was 0.71 MRC milliunits.

Which “effect on plasma phosphate” value [2] does the source give for calcitonin here?
Its value is “lowers”.
